In patent US20250034170A1, “SMALL MOLECULE MODULATORS OF GLUCOCEREBROSIDASE ACTIVITY AND USES THEREOF” (Vanqua Bio, Inc., priority 2021, published 2025):

biological target: T1, GCase (Homo sapiens, UniProt P04062); test: activation of GCase in a live cell PFB assay in HELA cells; type: cell-based; conditions: EC50 given as range classes
T1 construct: endogenous in cells; host or cells: HeLa cells
T1 sequence (P04062 40-536): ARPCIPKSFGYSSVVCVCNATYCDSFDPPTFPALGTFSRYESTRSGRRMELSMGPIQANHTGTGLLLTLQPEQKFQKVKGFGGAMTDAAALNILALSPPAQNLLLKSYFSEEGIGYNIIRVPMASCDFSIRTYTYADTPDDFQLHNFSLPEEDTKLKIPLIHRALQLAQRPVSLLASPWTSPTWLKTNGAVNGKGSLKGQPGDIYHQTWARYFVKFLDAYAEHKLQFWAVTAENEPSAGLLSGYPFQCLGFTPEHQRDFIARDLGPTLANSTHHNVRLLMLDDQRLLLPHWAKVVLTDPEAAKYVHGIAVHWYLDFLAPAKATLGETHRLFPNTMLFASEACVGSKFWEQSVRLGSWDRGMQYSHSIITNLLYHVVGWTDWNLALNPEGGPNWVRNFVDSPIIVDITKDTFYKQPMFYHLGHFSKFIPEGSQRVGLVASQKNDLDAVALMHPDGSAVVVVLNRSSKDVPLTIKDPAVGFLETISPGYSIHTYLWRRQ
Experimental: Exemplary compounds were evaluated for activation of GCase in a live cell PFB assay in HELA cells (essentially as described in Ysselstein et al., “LRRK2 kinase activity regulates lysosomal glucocerebrosidase in neurons derived from Parkinson's disease patients” Nature Communications (2019) 10:5570). […] EC50 ranges: A: <10 μM; B: >10-50 μM; C: >50-100 μM; D: >100 μM.

| EC50 [µM] | SMILES |
| --- | --- |
| < 10 | Cc1cc(C(F)(F)F)ncc1N1CC2(CCN(c3cnc4cnn(CC(F)F)c4n3)CC2)CC1=O [Cmpd 778] |
| < 10 | COc1nc(C(F)(F)F)ccc1N1CC2(CCN(c3cnc4cnn(CC(F)F)c4n3)CC2)CC1=O [Cmpd 779] |
| < 10 | O=C1CC2(CCN(c3cnc4cnn(CC(F)F)c4n3)CC2)CN1c1ccc(C(F)(F)F)nc1OC(F)F [Cmpd 780] |
| < 10 | Cc1ccc(N2CC3(CCN(c4cnc5cnn(CC(F)F)c5n4)CC3)CC2=O)c(OC(F)F)n1 [Cmpd 781] |
| < 10 | Cc1ccc(N2CC3(CCN(c4cnc5cnn(CC(F)F)c5n4)CC3)CC2=O)c(OC(F)(F)F)n1 [Cmpd 782] |
| 50 to 100 | COc1nc(N2CCC3(CCN(c4cnc5cnn(CC(F)F)c5n4)CC3)C2=O)ccc1C(F)(F)F [Cmpd 783] |
| < 10 | COc1ccc(C(F)(F)F)c(N2CCC3(CCN(c4cnc5cnn(CC(F)F)c5n4)CC3)C2=O)n1 [Cmpd 784] |
| > 100 | Cc1cnc(N2CCC3(CCN(c4cnc5cnn(CC(F)F)c5n4)CC3)C2)nc1C(F)(F)F [Cmpd 785] |
| < 10 | Cc1nc(C(F)(F)F)cnc1N1CCC2(CCN(c3cnc4cnn(CC(F)F)c4n3)CC2)C1 [Cmpd 786] |
| < 10 | COc1nc(C(F)(F)F)ncc1N1CCC2(CCN(c3cnc4cnn(CC(F)F)c4n3)CC2)C1 [Cmpd 787] |
| 10 to 50 | COc1ncc(N2CCC3(CCN(c4cnc5cnn(CC(F)F)c5n4)CC3)C2)c(C(F)(F)F)n1 [Cmpd 788] |
| 10 to 50 | O=C1CC2(CCN(c3cnc4cnn(CC(F)F)c4n3)C2)CCN1c1ccc(C(F)(F)F)nc1 (centres unmarked) [Cmpd 789] |
| < 10 | O=C1CCC2(CCN(c3cnc4cnn(CC(F)F)c4n3)C2)CN1c1ccc(C(F)(F)F)nc1 (centres unmarked) [Cmpd 790] |
| 50 to 100 | O=C1CC2(CCN(c3cnc4cnn(CC(F)F)c4n3)C2)CCN1c1ccc(C(F)(F)F)cn1 (centres unmarked) [Cmpd 791] |
| < 10 | O=C1CCC2(CCN(c3cnc4cnn(CC(F)F)c4n3)C2)CN1c1ccc(C(F)(F)F)cn1 (centres unmarked) [Cmpd 792] |
| 10 to 50 | O=C1CC2(CCN(c3cnc4cnn(CC(F)F)c4n3)C2)CCN1c1cc(C(F)(F)F)ccn1 (centres unmarked) [Cmpd 793] |
| < 10 | O=C1CCC2(CCN(c3cnc4cnn(CC(F)F)c4n3)C2)CN1c1cc(C(F)(F)F)ccn1 (centres unmarked) [Cmpd 794] |
| < 10 | O=C1CC2(CCN(c3cnc4cnn(CC(F)F)c4n3)C2)CCN1c1cncc(C(F)(F)F)c1 (centres unmarked) [Cmpd 795] |
| < 10 | O=C1CCC2(CCN(c3cnc4cnn(CC(F)F)c4n3)C2)CN1c1cncc(C(F)(F)F)c1 (centres unmarked) [Cmpd 796] |
| < 10 | O=C1N(c2ccc(C(F)(F)F)nc2)CCC12CC1CCC(C2)N1c1cnc2cnn(CC(F)F)c2n1 (centres unmarked) [Cmpd 797] |
| 10 to 50 | O=C1N(c2ccc(C(F)(F)F)cn2)CCC12CC1CCC(C2)N1c1cnc2cnn(CC(F)F)c2n1 (centres unmarked) [Cmpd 798] |
| < 10 | O=C1N(c2ccc(C(F)(F)F)nc2)CCC12C1CCC2CN(c2cnc3cnn(CC(F)F)c3n2)C1 (centres unmarked) [Cmpd 799] |
| < 10 | O=C1N(c2ccc(C(F)(F)F)cn2)CCC12C1CCC2CN(c2cnc3cnn(CC(F)F)c3n2)C1 (centres unmarked) [Cmpd 800] |
| 50 to 100 | O=C1CC2(CN1c1ccc(C(F)(F)F)nc1)C1CC2CN(c2cnc3cnn(CC(F)F)c3n2)C1 (centres unmarked) [Cmpd 801] |
| 10 to 50 | O=C1CC2(CN1c1ccc(C(F)(F)F)cn1)C1CC2CN(c2cnc3cnn(CC(F)F)c3n2)C1 (centres unmarked) [Cmpd 802] |
| < 10 | O=C1N(c2cnc3cnn(CC(F)F)c3n2)CCC12CC1CCC(C2)N1c1ccc(C(F)(F)F)nc1 (centres unmarked) [Cmpd 803] |
| 10 to 50 | O=C1CC2(CN1c1ccc(C(F)(F)F)nc1)C1CCC2CN(c2cnc3cnn(CC(F)F)c3n2)C1 (centres unmarked) [Cmpd 804] |

same assay, conditions: activation of GCase, EC50 ranges

| EC50 [µM] | SMILES |
| --- | --- |
| < 10 | FC(F)Cn1ncc2ncc(N3CCC4(CCN(c5cncc(C(F)(F)F)n5)C4)CC3)nc21 [Cmpd 733] |
| < 10 | FC(F)Cn1ncc2ncc(N3CCC4(CCN(c5cnc(C(F)(F)F)cn5)C4)CC3)nc21 [Cmpd 734] |
| 10 to 50 | FC(F)Cn1ncc2ncc(N3CCC4(CC3)CCN(c3nccnc3C(F)(F)F)C4)nc21 [Cmpd 735] |
| 10 to 50 | FC(F)Cn1ncc2ncc(N3CCC4(CCN(c5cnc(C(F)(F)F)nc5)C4)CC3)nc21 [Cmpd 736] |
| < 10 | FC(F)Cn1ncc2ncc(N3CCC4(CCN(c5ccnc(C(F)(F)F)n5)C4)CC3)nc21 [Cmpd 737] |
| < 10 | FC(F)Cn1ncc2ncc(N3CCC4(CCN(c5ccnc(OCC(F)(F)F)n5)C4)CC3)nc21 [Cmpd 738] |
| < 10 | FC(F)Cn1ncc2ncc(N3CCC4(CCN(c5cnc(OCC(F)(F)F)nc5)C4)CC3)nc21 [Cmpd 739] |
| < 10 | Fc1cnc(N2CCC3(CCN(c4cnc5cnn(CC(F)F)c5n4)CC3)C2)cc1C(F)(F)F [Cmpd 740] |
| < 10 | Fc1cnc(C(F)(F)F)cc1N1CCC2(CCN(c3cnc4cnn(CC(F)F)c4n3)CC2)C1 [Cmpd 741] |
| < 10 | Fc1cc(N2CCC3(CCN(c4cnc5cnn(CC(F)F)c5n4)CC3)C2)cnc1C(F)(F)F [Cmpd 742] |
| 10 to 50 | Fc1cc(C(F)(F)F)cnc1N1CCC2(CCN(c3cnc4cnn(CC(F)F)c4n3)CC2)C1 [Cmpd 743] |
| < 10 | CC1CC2(CCN(c3cc(C(F)(F)F)ccn3)C2)CCN1c1cnc2cnn(CC(F)F)c2n1 (centres unmarked) [Cmpd 745] |
| < 10 | CC1CN(c2cnc3cnn(CC(F)F)c3n2)CCC12CCN(c1cc(C(F)(F)F)ccn1)C2 (centres unmarked) [Cmpd 746] |
| 10 to 50 | CC1N(c2cc(C(F)(F)F)ccn2)CCC12CCN(c1cnc3cnn(CC(F)F)c3n1)CC2 (centres unmarked) [Cmpd 747] |
| < 10 | CC1CN(c2cc(C(F)(F)F)ccn2)CC12CCN(c1cnc3cnn(CC(F)F)c3n1)CC2 (centres unmarked) [Cmpd 748] |
| 10 to 50 | CC1CC2(CCN(c3cnc4cnn(CC(F)F)c4n3)CC2)CN1c1cc(C(F)(F)F)ccn1 (centres unmarked) [Cmpd 749] |
| < 10 | COCCn1ncc2ncc(N3CCC4(CCN(c5cc(C(F)(F)F)ccn5)C4)CC3)nc21 [Cmpd 750] |
| 10 to 50 | FC(F)OCCn1ncc2ncc(N3CCC4(CCN(c5cc(C(F)(F)F)ccn5)C4)CC3)nc21 [Cmpd 751] |
| < 10 | CC(C(F)F)n1ncc2ncc(N3CCC4(CCN(c5cc(C(F)(F)F)ccn5)C4)CC3)nc21 (centres unmarked) [Cmpd 752] |
| < 10 | Cc1cc(C(F)(F)F)ncc1N1CCC2(CCN(c3cnc4cnn(CC(F)F)c4n3)CC2)C1 [Cmpd 753] |
| > 100 | FC(F)Cn1ncc2ncc(N3CCC4(CC3)CCN(c3cnc(C(F)(F)F)cc3Cl)C4)nc21 [Cmpd 754] |
| 10 to 50 | Cc1cc(C)c(N2CCC3(CCN(c4cnc5cnn(CC(F)F)c5n4)CC3)C2)nn1 [Cmpd 755] |

| EC50 [µM] | SMILES |
| --- | --- |
| 10 to 50 | Cc1cc(C(F)(F)F)nnc1N1CCC2(CCN(c3cnc4cnn(CC(F)F)c4n3)CC2)C1 [Cmpd 756] |
| < 10 | Cc1ccc(N2CCC3(CCN(c4cnc5cnn(CC(F)F)c5n4)CC3)C2)nn1 [Cmpd 757] |
| < 10 | Cc1nccc(N2CCC3(CCN(c4cnc5cnn(CC(F)F)c5n4)CC3)C2)n1 [Cmpd 758] |
| < 10 | Cc1ncc(N2CCC3(CCN(c4cnc5cnn(CC(F)F)c5n4)CC3)C2)cn1 [Cmpd 759] |
| < 10 | CCc1ncc(N2CCC3(CCN(c4cnc5cnn(CC(F)F)c5n4)CC3)C2)cn1 [Cmpd 760] |
| < 10 | Cc1nc(C(F)(F)F)ncc1N1CCC2(CCN(c3cnc4cnn(CC(F)F)c4n3)CC2)C1 [Cmpd 761] |
| < 10 | COc1ncc(N2CCC3(CCN(c4cnc5cnn(CC(F)F)c5n4)CC3)C2)cn1 [Cmpd 762] |
| < 10 | CCOc1ncc(N2CCC3(CCN(c4cnc5cnn(CC(F)F)c5n4)CC3)C2)cn1 [Cmpd 763] |
| < 10 | Cc1ncc(N2CCC3(CCN(c4cnc5cnn(CC(F)F)c5n4)CC3)C2)nc1C(F)(F)F [Cmpd 764] |
| < 10 | Cc1ncc(C(F)(F)F)nc1N1CCC2(CCN(c3cnc4cnn(CC(F)F)c4n3)CC2)C1 [Cmpd 765] |
| < 10 | Fc1ncc(C(F)(F)F)nc1N1CCC2(CCN(c3cnc4cnn(CC(F)F)c4n3)CC2)C1 [Cmpd 766] |
| < 10 | Fc1ncc(N2CCC3(CCN(c4cnc5cnn(CC(F)F)c5n4)CC3)C2)nc1C(F)(F)F [Cmpd 767] |
| < 10 | FC(F)(F)c1cncc(N2CCC3(CCN(c4cnc5cnn(C6COC6)c5n4)CC3)C2)n1 [Cmpd 768] |
| 10 to 50 | O=C1CC2(CCN(c3cnc4cnn(C5COC5)c4n3)CC2)CN1c1ccnc(C(F)(F)F)c1 [Cmpd 769] |
| < 10 | FC(F)Cn1ncc2ncc(N3CC4(CCN(c5cnc(C(F)(F)F)cn5)CC4)C3)nc21 [Cmpd 770] |
| < 10 | FC(F)Cn1ncc2ncc(N3CC4(CCN(c5cncc(C(F)(F)F)n5)CC4)C3)nc21 [Cmpd 771] |
| > 100 | O=C1N(c2cnc3cnn(CC(F)F)c3n2)CCC12CCN(c1cnc(C(F)(F)F)cn1)CC2 [Cmpd 772] |
| < 10 | O=C1N(c2nccc(C(F)(F)F)n2)CCC12CCN(c1cnc3cnn(CC(F)F)c3n1)CC2 [Cmpd 773] |
| < 10 | O=C1N(c2cncc(C(F)(F)F)n2)CCC12CCN(c1cnc3cnn(CC(F)F)c3n1)CC2 [Cmpd 774] |
| > 100 | Cc1cc(C(F)(F)F)cnc1N1CCC2(CCN(c3cnc4cnn(CC(F)F)c4n3)CC2)C1=O [Cmpd 775] |
| 10 to 50 | O=C1N(c2ncc(C(F)(F)F)cc2Cl)CCC12CCN(c1cnc3cnn(CC(F)F)c3n1)CC2 [Cmpd 776] |
| > 100 | O=C1N(c2ncc(C(F)(F)F)cc2F)CCC12CCN(c1cnc3cnn(CC(F)F)c3n1)CC2 [Cmpd 777] |
